Experimental data: BindingDB's records for patent US20250313563 (The Broad Institute, 2025)
Several values for one entry are separate records, joined by “and”; a condition that tells them apart may be missing. Identical values can stand only once.

How the values were obtained:
[1] = molecular target: Glycogen synthase kinase-3 beta (Homo sapiens, UniProt P49841); assay: TR-FRET Assay
Method in brief: (§1)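 Compound was preincubated 30 min in assay buffer before the kinase reaction, which was quenched with EDTA. Phosphorylation was detected by TR-FRET after adding a solution of 40 nM streptavidin-d2 and 2 nM Tb-labelled anti-pSer641 antibody.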

[2] = molecular target: Glycogen synthase kinase-3 alpha (Homo sapiens, UniProt P49840); assay: TR-FRET Assay
Sequence of Glycogen synthase kinase-3 alpha (P49840 whole entry): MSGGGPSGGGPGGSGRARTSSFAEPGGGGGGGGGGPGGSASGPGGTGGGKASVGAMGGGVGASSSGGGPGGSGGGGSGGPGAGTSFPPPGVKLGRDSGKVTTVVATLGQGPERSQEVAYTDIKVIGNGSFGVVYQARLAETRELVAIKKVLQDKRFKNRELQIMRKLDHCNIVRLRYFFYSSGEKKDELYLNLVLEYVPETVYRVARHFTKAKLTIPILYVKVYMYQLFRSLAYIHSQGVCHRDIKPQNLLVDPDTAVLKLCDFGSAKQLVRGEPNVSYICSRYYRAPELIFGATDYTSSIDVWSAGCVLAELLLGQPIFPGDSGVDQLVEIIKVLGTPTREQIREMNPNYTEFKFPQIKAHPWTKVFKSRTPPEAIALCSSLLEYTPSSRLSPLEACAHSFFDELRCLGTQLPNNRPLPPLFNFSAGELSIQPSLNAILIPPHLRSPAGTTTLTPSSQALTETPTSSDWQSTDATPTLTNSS
Method in brief: as §1

Sequence of Glycogen synthase kinase-3 beta (P49841 whole entry): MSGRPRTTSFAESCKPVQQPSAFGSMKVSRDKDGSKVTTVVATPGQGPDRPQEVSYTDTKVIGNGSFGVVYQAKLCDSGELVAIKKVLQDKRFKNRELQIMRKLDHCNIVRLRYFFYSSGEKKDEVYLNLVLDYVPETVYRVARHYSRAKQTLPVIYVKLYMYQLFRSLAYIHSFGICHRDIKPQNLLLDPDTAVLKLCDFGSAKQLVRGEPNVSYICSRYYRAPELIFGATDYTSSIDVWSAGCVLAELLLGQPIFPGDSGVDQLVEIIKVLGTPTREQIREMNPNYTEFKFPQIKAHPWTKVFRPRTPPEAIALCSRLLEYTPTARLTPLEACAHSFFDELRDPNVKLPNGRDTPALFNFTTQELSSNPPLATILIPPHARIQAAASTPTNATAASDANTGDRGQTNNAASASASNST

Row | IC50 [1] | IC50 [2] | Structure (SMILES)
1 | 100 to 1000 nM | < 100 nM | CCC1(c2cccc(-c3cc(C)ncc3OC)c2)C2=CN=NC2NC2=C1C(=O)CC(C)(C)C2 (configuration not stated) [US20250313563, Compound 945468]
2 | < 100 nM | < 100 nM | CC[C@]1(c2cccc(-c3ccncc3CO)c2)C2=CN=NC2NC2=C1C(=O)CC(C)(C)C2 (some centres not stated) [US20250313563, Compound 945469]
3 | < 100 nM and 1000 to 5000 nM | < 100 nM and 100 to 1000 nM | CC[C@@]1(c2cccc(-c3cn(C)nc3C)c2)C2=CN=NC2NC2=C1C(=O)NC(C)(C)C2 (some centres not stated) [US20250313563, Compound 945470]
4 | 1000 to 5000 nM and > 5000 nM | 1000 to 5000 nM and > 5000 nM | CC[C@@]1(c2cccc(-c3ccncc3OC)c2)C2=CN=NC2NC2=C1C(=O)CC(C)(C)C2 (some centres not stated) [US20250313563, Compound 945471]
5 | 100 to 1000 nM | < 100 nM | CC[C@]1(c2cccc(-c3ncnn3C)c2)C2=CN=NC2NC2=C1C(=O)CC(C)(C)C2 (some centres not stated) [US20250313563, Compound 945472]
6 | 100 to 1000 nM | < 100 nM | CC1(C)CC(=O)C2=C(C1)NC1N=NC=C1[C@@]21CCCN(S(=O)(=O)Cc2ccccc2)CC1 (some centres not stated) [US20250313563, Compound 945473]
7 | 100 to 1000 nM | < 100 nM | CC[C@@]1(c2cccc(N(C)c3ccc(C(F)(F)F)nc3)c2)C2=CN=NC2NC2=C1C(=O)CC(C)(C)C2 (some centres not stated) [US20250313563, Compound 945474]
8 | 100 to 1000 nM and > 5000 nM | < 100 nM and 1000 to 5000 nM | CC[C@@]1(c2cccc(-c3ccnc(C)c3)c2)C2=CN=NC2NC2=C1C(=O)[C@@H](F)C(C)(C)C2 (some centres not stated) [US20250313563, Compound 945475]
9 | 100 to 1000 nM and > 5000 nM | < 100 nM and 100 to 1000 nM | CC[C@@]1(c2cccc(-c3ccnc(C)c3)c2)C2=CN=NC2NC2=C1C(=O)[C@H](F)C(C)(C)C2 (some centres not stated) [US20250313563, Compound 945476]
10 | 1000 to 5000 nM | 1000 to 5000 nM | CC1(C)CC(=O)C2=C(C1)NC1=C(CN=N1)C21CN(c2ccccn2)C1 [US20250313563, Compound 945477]
11 | 100 to 1000 nM | 100 to 1000 nM | CC1(C)CC(=O)C2=C(C1)NC1N=NC=C1C21CN(c2ccc(C(F)(F)F)cc2)C1 (configuration not stated) [US20250313563, Compound 945478]
12 | 1000 to 5000 nM | 100 to 1000 nM | CC[C@@]1(c2cccc(-c3ccncc3CO)c2)C2=CN=NC2NC2=C1C(=O)CC(C)(C)C2 (some centres not stated) [US20250313563, Compound 945479]
13 | > 5000 nM | 1000 to 5000 nM | CC[C@]1(c2cccc(-c3cn(C)nc3C)c2)C2=CN=NC2NC2=C1C(=O)NC(C)(C)C2 (some centres not stated) [US20250313563, Compound 945480]
14 | > 5000 nM | 1000 to 5000 nM and > 5000 nM | CC[C@@]1(c2cccc(-c3ncnn3C)c2)C2=CN=NC2NC2=C1C(=O)CC(C)(C)C2 (some centres not stated) [US20250313563, Compound 945482]

The next lines start with the compound.

Row | Structure (SMILES) | IC50 [1] | IC50 [2]
15 | CC1(C)CC(=O)C2=C(C1)NC1=C(CN=N1)C21CCC(C(=O)N2CCCC2)CC1 (configuration not stated) [US20250313563, Compound 945396] | 100 to 1000 nM | 100 to 1000 nM
16 | CNC(=O)C1CCC2(CC1)C1=C(N=NC1)NC1=C2C(=O)CC(C)(C)C1 (configuration not stated) [US20250313563, Compound 945397] | 100 to 1000 nM | 100 to 1000 nM
17 | CCC1(c2cccc(-c3ccnc(C)c3OC)c2)C2=CN=NC2NC2=C1C(=O)CC(C)(C)C2 (configuration not stated) [US20250313563, Compound 945458] | < 100 nM | < 100 nM
18 | CCC1(c2cccc(C3=CN=NC3)c2)C2=C(CC(C)(C)NC2=O)NC2N=NC(C)=C21 (configuration not stated) [US20250313563, Compound 945459] | < 100 nM | < 100 nM
19 | CCC1(c2cccc(-c3cn(C)nc3C)c2)C2=C(CC(C)(C)NC2=O)NC2N=NC(C)=C21 (configuration not stated) [US20250313563, Compound 945460] | < 100 nM | < 100 nM
20 | CCC1(c2cccc(-c3ccncc3C)c2)C2=CN=NC2NC2=C1C(=O)NC(C)(C)C2 (configuration not stated) [US20250313563, Compound 945461] | < 100 nM | < 100 nM
21 | CCC1(c2cccc(-c3c(C)nn(C)c3C)c2)C2=CN=NC2NC2=C1C(=O)NC(C)(C)C2 (configuration not stated) [US20250313563, Compound 945462] | < 100 nM | < 100 nM
22 | CCC1(c2cccc(-c3cc(C)nc(OC(F)F)c3)c2)C2=CN=NC2NC2=C1C(=O)CC(C)(C)C2 (configuration not stated) [US20250313563, Compound 945463] | 1000 to 5000 nM | 100 to 1000 nM
23 | CCC1(c2cccc(S(=O)(=O)C(C)C)c2)C2=CN=NC2NC2=C1C(=O)NC(C)(C)C2 (configuration not stated) [US20250313563, Compound 945464] | < 100 nM | < 100 nM
24 | CCC1(c2cccc(S(=O)(=O)C3CC3)c2)C2=CN=NC2NC2=C1C(=O)NC(C)(C)C2 (configuration not stated) [US20250313563, Compound 945465] | < 100 nM | < 100 nM
25 | CCC1(c2cccc(N(C)C3CC3)c2)C2=CN=NC2NC2=C1C(=O)CC(C)(C)C2 (configuration not stated) [US20250313563, Compound 945466] | 1000 to 5000 nM | 100 to 1000 nM
26 | CCCc1cc(-c2cccc(C3(CC)C4=CN=NC4NC4=C3C(=O)CC(C)(C)C4)c2)ccn1 (configuration not stated) [US20250313563, Compound 945467] | 100 to 1000 nM | < 100 nM
